Experimental data: ChEMBL document CHEMBL1201862, “PubChem BioAssay data set” (2004)
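Where inhibition never reached the appropriate level, the endpoint shown equals the highest concentration tested. Otherwise, values were interpolated linearly from a five-concentration, 48-hour dose response in 96-well plates. At the GI50, growth is halved.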 Activity calls are given as the source filed them. Cut-off read from the data, not from the text of the source: active = GI50 up to about 1.1 µM and inactive = higher.

What was measured:
Experiment in all cases: DTP human tumour cell line panel, 48 h
M19-MEL = tested on: M19-MEL
MDA-MB-435 = tested on: MDA-MB-435
OVCAR-3 = tested on: OVCAR-3
UACC-257 = tested on: UACC-257
EKVX = tested on: EKVX
DU-145 = tested on: DU-145
HT-29 = tested on: HT-29
MDA-MB-231 = tested on: MDA-MB-231
DMS-114 = tested on: DMS-114
OVCAR-5 = tested on: OVCAR-5
NCI-H226 = tested on: NCI-H226
MDA-N = tested on: MDA-N
HCT-15 = tested on: HCT-15
CCRF-CEM = tested on: CCRF-CEM
SK-OV-3 = tested on: SK-OV-3
SW-620 = tested on: SW-620
HCT-116 = tested on: HCT-116
OVCAR-4 = tested on: OVCAR-4
RPMI-8226 = tested on: RPMI-8226
KM-20L2 = tested on: KM-20L2

Row | SMILES | GI50 (M19-MEL) | GI50 (MDA-MB-435) | GI50 (OVCAR-3) | GI50 (UACC-257) | GI50 (EKVX) | GI50 (DU-145) | GI50 (HT-29) | GI50 (MDA-MB-231) | GI50 (DMS-114) | GI50 (OVCAR-5) | GI50 (NCI-H226) | GI50 (MDA-N) | GI50 (HCT-15) | GI50 (CCRF-CEM) | GI50 (SK-OV-3) | GI50 (SW-620) | GI50 (HCT-116) | GI50 (OVCAR-4) | GI50 (RPMI-8226) | GI50 (KM-20L2)
1 | C[n+]1ccn2c3nc4ccccc4nc3c([O-])c(C#N)c21 | < 0.01 µM (active) | > 100 µM (inactive) | > 100 µM (inactive) | > 100 µM (inactive) | > 100 µM (inactive) | > 100 µM (inactive) | > 100 µM (inactive) | > 100 µM (inactive) | > 100 µM (inactive) | > 10 µM (inactive) | > 100 µM (inactive) | > 100 µM (inactive) | > 10 µM | > 100 µM (inactive) | > 100 µM (inactive) | > 100 µM (inactive) | > 100 µM (inactive) | > 100 µM (inactive) | > 100 µM (inactive) | 
2 | CC(=O)c1ccc(NC(=O)C(=O)C(C#N)CC(C)(C)C=O)cc1 (stereo not drawn) | > 100 µM (inactive) |  | > 100 µM (inactive) | > 100 µM (inactive) | > 100 µM (inactive) |  | > 100 µM (inactive) |  |  | > 100 µM (inactive) | > 100 µM (inactive) |  | > 100 µM | > 100 µM (inactive) | > 100 µM (inactive) | > 100 µM (inactive) | > 100 µM (inactive) | > 100 µM (inactive) | > 100 µM (inactive) | > 100 µM (inactive)
3 | O=C(CCCN1CCC2(CC1)OC(=O)N(c1ccccc1)C2=O)c1ccccc1 |  | > 100 µM (inactive) | > 100 µM (inactive) | > 100 µM (inactive) | > 100 µM (inactive) | > 100 µM (inactive) | > 100 µM (inactive) | 35.5 µM (inactive) |  | > 100 µM (inactive) | > 100 µM (inactive) | > 100 µM (inactive) | > 100 µM | > 100 µM (inactive) | > 100 µM (inactive) | > 100 µM (inactive) | > 100 µM (inactive) | > 100 µM (inactive) | > 100 µM (inactive) | 
4 | COc1cccc(NC(=O)CC(=O)n2nc(C)c(/N=N/c3ccccc3)c2C)c1 | > 100 µM (inactive) |  | > 100 µM (inactive) | > 100 µM (inactive) | 58.6 µM (inactive) |  | > 100 µM (inactive) |  | > 100 µM (inactive) |  | 28.5 µM (inactive) |  |  |  | > 100 µM (inactive) | > 100 µM (inactive) | > 100 µM (inactive) | > 100 µM (inactive) | > 100 µM (inactive) | 
5 | CCOC(=O)/C(C(=O)Nc1ccc(Cl)cc1)=C(/N)N1CCOCC1 |  | > 100 µM (inactive) | > 100 µM (inactive) | > 100 µM (inactive) | > 100 µM (inactive) | > 100 µM (inactive) | > 100 µM (inactive) | > 100 µM (inactive) |  | > 100 µM (inactive) | > 100 µM (inactive) | > 100 µM (inactive) | > 100 µM | > 100 µM (inactive) | > 100 µM (inactive) | > 100 µM (inactive) | > 100 µM (inactive) | > 100 µM (inactive) | > 100 µM (inactive) | 
6 | Nc1nc(=O)c(/N=N/c2ccc([As](=O)(O)O)cc2)c(N)[nH]1 |  | > 100 µM (inactive) | > 100 µM (inactive) | > 100 µM (inactive) | > 100 µM (inactive) | > 100 µM (inactive) | > 100 µM (inactive) | > 100 µM (inactive) |  | > 100 µM (inactive) | > 100 µM (inactive) | > 100 µM (inactive) | > 100 µM | > 100 µM (inactive) | > 100 µM (inactive) | > 100 µM (inactive) | > 100 µM (inactive) | > 100 µM (inactive) | > 100 µM (inactive) | 
7 | CC1=C(Br)C(=O)c2c(O)ccc(O)c2C1=O |  | 0.204 µM (active) | 0.74 µM (active) | 1.13 µM (inactive) | 2.37 µM (inactive) | 1.52 µM (inactive) | 0.336 µM (active) | 1.26 µM (inactive) |  | 1.66 µM (inactive) | 2.67 µM (inactive) | 0.251 µM (active) | 0.342 µM | 0.0183 µM (active) | 1.85 µM (inactive) | 0.163 µM (active) | 0.303 µM (active) | 0.857 µM (active) | 0.278 µM (active) | 
8 | O=C1NP23(OCCO2)Oc2ccccc2C3(C(F)(F)F)O1 (stereo not drawn) | > 100 µM (inactive) |  | > 100 µM (inactive) | > 100 µM (inactive) |  |  | > 100 µM (inactive) |  | > 100 µM (inactive) |  | > 100 µM (inactive) |  | 72.3 µM | > 100 µM (inactive) | > 100 µM (inactive) |  | > 100 µM (inactive) | > 100 µM (inactive) |  | 
9 | CC(=O)Nc1ccccc1S(=O)(=O)c1c(-c2c(C)c(Cl)c(C)c(Cl)c2C)noc1C |  | > 100 µM (inactive) | 57.8 µM (inactive) | 60.7 µM (inactive) | 48.9 µM (inactive) | 88.3 µM (inactive) | 55.2 µM (inactive) | 23.7 µM (inactive) |  | > 100 µM (inactive) | 27 µM (inactive) | 37.2 µM (inactive) | > 100 µM | 27.8 µM (inactive) | 31.7 µM (inactive) | > 100 µM (inactive) | 51.5 µM (inactive) | 14.7 µM (inactive) | 29.2 µM (inactive) | 
10 | CC1=CC(=O)c2ccc(C)cc2C1=O [CHIMAPHILIN] |  | 2.49 µM (inactive) | 11.8 µM (inactive) | 12.9 µM (inactive) | 7.1 µM (inactive) | 16.8 µM (inactive) | 38.6 µM (inactive) | 11.6 µM (inactive) |  | 19.9 µM (inactive) | 13.8 µM (inactive) | 0.394 µM (active) | 12.7 µM | 2.86 µM (inactive) | 16.9 µM (inactive) | 11.8 µM (inactive) | 4.44 µM (inactive) | 16.7 µM (inactive) | 1.77 µM (inactive) | 
11 | O=C1N/C(=N/N=C/C(O)C(O)C(O)CO)N/C1=C\c1ccco1 (stereo not drawn) |  | > 100 µM (inactive) | > 100 µM (inactive) | > 100 µM (inactive) | > 100 µM (inactive) | > 100 µM (inactive) | > 100 µM (inactive) | > 100 µM (inactive) |  | > 100 µM (inactive) | > 100 µM (inactive) | > 100 µM (inactive) | > 100 µM | 93.1 µM (inactive) | > 100 µM (inactive) | > 100 µM (inactive) | > 100 µM (inactive) | > 100 µM (inactive) | > 100 µM (inactive) | 
12 | O=C1NC2(CCNCC2)Oc2ccccc21 |  | > 100 µM (inactive) | > 100 µM (inactive) | > 100 µM (inactive) | > 100 µM (inactive) | > 100 µM (inactive) | > 100 µM (inactive) | > 100 µM (inactive) |  | > 100 µM (inactive) | > 100 µM (inactive) | > 100 µM (inactive) | > 100 µM | > 100 µM (inactive) | > 100 µM (inactive) | > 100 µM (inactive) | > 100 µM (inactive) | > 100 µM (inactive) | > 100 µM (inactive) | 
13 | CC(Cc1ccc(Cl)cc1Cl)NO (stereo not drawn) |  | > 100 µM (inactive) | > 100 µM (inactive) | > 100 µM (inactive) | 58.2 µM (inactive) | > 100 µM (inactive) | > 100 µM (inactive) | > 100 µM (inactive) |  | > 100 µM (inactive) | 46.3 µM (inactive) | > 100 µM (inactive) | > 100 µM | > 100 µM (inactive) | > 100 µM (inactive) | > 100 µM (inactive) | 83.6 µM (inactive) | > 100 µM (inactive) | 78 µM (inactive) | 
14 | CCOC(=O)c1ccc(/N=C2\SC(=S)N(c3ccc(F)cc3)\C2=N/c2ccc(C(=O)OCC)cc2)cc1 |  | 17.9 µM (inactive) | 20 µM (inactive) | 15.2 µM (inactive) | 22.1 µM (inactive) | 39.2 µM (inactive) | 30.5 µM (inactive) | 7.8 µM (inactive) |  | 23 µM (inactive) | 21.8 µM (inactive) | 12.9 µM (inactive) | 4.29 µM | 6.95 µM (inactive) | 86.9 µM (inactive) | 12.5 µM (inactive) | 14.2 µM (inactive) | 12.1 µM (inactive) | 9.42 µM (inactive) | 
15 | Cc1ccc(C)c(C2NC(=O)c3ccccc3N2)c1 (stereo not drawn) |  | 0.0792 µM (active) | 0.265 µM (active) | 12 µM (inactive) | 5.07 µM (inactive) | 2.56 µM (inactive) | 0.445 µM (active) | 10.3 µM (inactive) |  | 6.18 µM (inactive) | 2.95 µM (inactive) | 0.0986 µM (active) | 0.515 µM | 0.753 µM (active) | 2.02 µM (inactive) | 0.472 µM (active) | 0.601 µM (active) | 6.27 µM (inactive) | 2.11 µM (inactive) | 
16 | O=c1oc2ccc(Cl)cc2cc1-c1cn2cc(Cl)ccc2n1 |  | 0.24 µM (active) | 5.3 µM (inactive) | > 100 µM (inactive) | > 37.3 µM (inactive) | > 100 µM (inactive) | > 24.3 µM (inactive) | > 70.3 µM (inactive) |  | > 100 µM (inactive) | > 100 µM (inactive) | 0.368 µM (active) | 2.36 µM | > 28.8 µM (inactive) | > 100 µM (inactive) | > 32.3 µM (inactive) | 6.3 µM (inactive) | > 100 µM (inactive) | > 100 µM (inactive) | 
17 | CC1=C(C(=O)Nc2ccccc2)C2(CCCCC2)C(C#N)=C(SCC(=O)Nc2ccc(Br)cc2)N1 |  | 4.47 µM (inactive) | 3.27 µM (inactive) | 7.28 µM (inactive) | 2.15 µM (inactive) | 7.76 µM (inactive) | 2.45 µM (inactive) | 7.33 µM (inactive) |  | 4.99 µM (inactive) | 6.84 µM (inactive) | 3.41 µM (inactive) | 4.23 µM | 1.46 µM (inactive) | 8.79 µM (inactive) | 5.43 µM (inactive) | 2.51 µM (inactive) | 4.91 µM (inactive) | 2.08 µM (inactive) | 
